According to ChEMBL document CHEMBL4665748, “Heimiomycins A-C and Calamenens from the African Basidiomycete Heimiomyces sp” (J Nat Prod, 2020):
Converted amounts (≈) assume the structure as drawn. The source made the active and inactive calls. No cut-off for these calls is given here.

Legend:
[1] = test system: Mycolicibacterium smegmatis; test: Antimicrobial activity against Mycobacterium smegmatis DSM44200 by serial dilution method; assay type: functional
Bacillus subtilis = test: Antimicrobial activity against Bacillus subtilis DSM10 by serial dilution method; assay type: functional
Micrococcus luteus = test: Antimicrobial activity against Micrococcus luteus DSM1790 by serial dilution method; assay type: functional
Wickerhamomyces anomalus = test: Antimicrobial activity against Pichia anomala DSM6766 by serial dilution method; assay type: functional
Staphylococcus aureus = test: Antimicrobial activity against Staphylococcus aureus DSM346 by serial dilution method; assay type: functional
Mucor hiemalis = test: Antimicrobial activity against Mucor hiemalis DSM2656 by serial dilution method; assay type: functional
L929 = test: Cytotoxicity against mouse L929 cells assessed as reduction in cell viability by MTT assay; assay type: functional, cell-based
Candida albicans = test: Antimicrobial activity against Candida albicans DSM1665 by serial dilution method; assay type: functional
KB 3-1 = test: Cytotoxicity against human KB3.1 cells assessed as reduction in cell viability by MTT assay; assay type: functional, cell-based
[2] = Mus musculus, L929, read-out: IC50

Row | Compound | MIC [1] | MIC (Bacillus subtilis) [µg/mL] | MIC (Micrococcus luteus) [µg/mL] | MIC (Staphylococcus aureus) [µg/mL] | MIC (Mucor hiemalis) [µg/mL] | MIC (Candida albicans) [µg/mL] | other results
1 | NC[C@H]1O[C@H](O[C@H]2[C@H](O)[C@@H](O[C@H]3O[C@H](CO)[C@@H](O)[C@H](N)[C@H]3O)[C@H](N)C[C@@H]2N)[C@H](O)[C@@H](O)[C@@H]1O [KANAMYCIN] | 0.6 µg/mL (≈ 1.24 µM) |  |  |  |  |  | 
2 | CN(C)[C@@H]1C(O)=C(C(N)=O)C(=O)[C@@]2(O)C(O)=C3C(=O)c4c(O)cccc4[C@@](C)(O)[C@H]3[C@H](O)[C@@H]12 [OXYTETRACYCLINE] |  | 9.2 (≈ 20 µM) | 0.3 (≈ 0.652 µM) |  |  |  | 
3 | COc1c(O)c2c(c3cnc4c(c13)C(=O)C=C(C)C4=O)[C@@H](C(C)C)CC[C@@H]2C | inactive | 6.3 (≈ 16.6 µM) | 6.3 (≈ 16.6 µM) | 50 (≈ 132 µM) | 50 (≈ 132 µM) | 100 (≈ 264 µM) | MIC (Wickerhamomyces anomalus; Hansenula anomala): 100 µg/mL (≈ 264 µM); IC50 (L929; l929): Not Active; IC50 (KB 3-1): Not Active
4 | CC1=CC(=O)C(c2c(C=O)c(O)c(O)c3c2[C@@H](C(C)C)CC[C@@H]3C)=C(O)C1=O | 100 µg/mL (≈ 260 µM) | 12.5 (≈ 32.5 µM) | 3.1 (≈ 8.06 µM) | 50 (≈ 130 µM) | 25 (≈ 65 µM) | 100 (≈ 260 µM) | MIC (Wickerhamomyces anomalus; Hansenula anomala): 100 µg/mL (≈ 260 µM); IC50 (L929; [2]): 5.5 µM; IC50 (KB 3-1): Not Active
5 | NYSTATIN |  |  |  |  | 9.2 | 9.2 | MIC (Wickerhamomyces anomalus): 4.6 µg/mL
6 | GENTAMICIN |  |  |  | 9.2 |  |  | 
7 | C/C(=C\c1csc(C)n1)[C@@H]1C[C@@H]2O[C@]2(C)CCC[C@H](C)[C@H](O)[C@@H](C)C(=O)C(C)(C)[C@@H](O)CC(=O)O1 [PATUPILONE] |  |  |  |  |  |  | IC50 (L929; [2]): 0.0026 µM
